Experiments:
Format in all cases: cell-based
[1] = system: IL-4 induced proliferation of human primary B cells; assay: Inhibition of IL-4 induced B cell proliferation
Experimental: Human PBMCs were isolated from human blood samples by standard Ficoll-Paque™ plus (GE […]) density gradient centrifugation methods, and primary B cells were isolated from the PBMC suspension by negative selection with EasySep™ Human Naïve B cell Enrichment kit according to the manufacturer's protocol ([…]™ Technologies). […] Cells were stimulated with Human CD40/TNFRSF5 Antibody (200 ng/mL; R&D SYSTEMS) and with IL-4 recombinant human protein (5 ng/mL; R&D SYSTEMS) for 2 days at 37° C. and 5% CO2. Cells were then pulsed with [^3H]-thymidine ([…] thymidine/well; PerkinElmer®) for 18 hours at 37° C. and level of [^3H]-thymidine incorporation was measured by a Microplate Counter (MicroBeta 2; PerkinElmer®) and expressed as a […] (CCPM). Statistical analysis was performed using GraphPad Prism 9 and curves were generated by fitting a sigmoidal curve of the log (Ab concentration) vs. the mean percent inhibition of CCPM compared to CD40 stimulation alone from two donors.

[2] = system: anti-CD40 induced proliferation of human primary B cells; assay: Glucocorticoid receptor mediated inhibition of anti-CD40 induced B cell proliferation
Experimental: Human PBMCs were isolated from human blood samples by standard Ficoll-Paque™ plus (GE […]) density gradient centrifugation methods, and primary B cells were isolated from the PBMC suspension by negative selection with EasySep™ Human Naïve B cell Enrichment kit according to the manufacturer's protocol ([…]™ Technologies). […] Cells were then pulsed with [^3H]-thymidine ([…] thymidine/well; PerkinElmer®) for 18 hours at 37° C. and level of [^3H]-thymidine incorporation was measured by a Microplate Counter (MicroBeta 2; PerkinElmer®) and expressed as a […] (CCPM). Statistical analysis was performed using GraphPad Prism 9 and curves were generated by fitting a sigmoidal curve of the log(Ab concentration) vs. the mean percent inhibition of CCPM compared to no stimulation from 2 donors.

[3] = system: GM-CSF secretion from Human PBMCs; assay: Inhibition of cytokine secretion from human PBMCs; details: PBMC; PHA-M/PMA stimulated human PBMCs, 48 hours; 100 nM
Experimental: (§1) Example 4h. Inhibition of Cytokine secretion from Human PBMCs: PBMCs were isolated from Ficoll-layered blood centrifuged at 400×g for 30 minutes at room temperature. The PBMC layer was washed with sterile RPMI-1640 media (Corning® Cat. #10041CV) and centrifuged at 1500 rpm for 5 min, at 4° C. Red blood cells are lysed by resuspending the cell pellet in 5 mL of ACK Lysing Buffer (GIBCO Cat. #A1049201) and incubating at room temperature for 5 minutes. […] The plates are incubated at 37° C. with 5% CO2 for 48 hours. After the incubation period, plates are centrifuged at 2000 rpm for 1 min and the top 100 μL of the supernatants are removed and stored at −80° C., until ready to perform cytokine detection. Cytokine release is detected using the U-PLEX Custom Biomarker [Human] Multiplex Assay (MESO SCALE DISCOVERY), according to the manufacturer's protocol. Statistical analysis is performed using GraphPad Prism 9. Data was presented as sigmoidal curve fits of the mean of the individual donors' percent inhibition for each cytokine (n=2) vs. the log(Ab concentration) and statistical analysis is performed using GraphPad Prism 9.

[4] = system: IL-5 secretion from Human PBMCs; assay: Inhibition of cytokine secretion from human PBMCs; details: PBMC; PHA-M/PMA stimulated human PBMCs, 48 hours; 100 nM
Experimental: as §1

[5] = system: MDC secretion from Human PBMCs; assay: Inhibition of cytokine secretion from human PBMCs; details: PBMC; PHA-M/PMA stimulated human PBMCs, 48 hours; 100 nM
Experimental: as §1

Q: How did the inhibition at 0.06667 µM ([1]; Homo sapiens, B-cell, IL-4 induced, 66.67 nM) turn out when `Cc1ccc(OCc2cccc(N)c2)c(F)c1[C@H]1O[C@@H]2C[C@H]3[C@@H]4CCC5=CC(=O)C=C[C@]5(C)[C@H]4[C@@H](O)C[C@]3(C)[C@]2(C(=O)CO)O1` (single isomer, unassigned) [GC1] was run?
A: 25.7%

Q: What about the “Inhibition of IL-4 induced B cell proliferation (in words)” value ([1]; compared to the isotype control) of the same molecule?
A: no significant inhibition was observed

Q: What about the IC50 ([2]; anti-CD40 (200 ng/mL) induced, no IL-4) of the same molecule?
A: 3.73 nM

Q: And the inhibition at 0.1 µM ([2]; read-out: Inhibition of B cell proliferation at 100 nM % inhibition, anti-CD40 induced, 100 nM)?
A: 66.5%

Q: And the inhibition at 0.1 µM [3]?
A: 90.8%

Q: And the inhibition at 0.1 µM [4]?
A: 97.4%

Q: And the inhibition at 0.1 µM [5]?
A: 96.1%
